From US12365925B2, “Method and system for treatment of microorganisms during propagation, conditioning, fermentation, and preservation using ethyl lauroyl arginate and selected additives” (KEMIN INDUSTRIES, INC., priority 2015, dated 2025)

Key:
[1] = tested on: Culture Dry Yeast (CDY) corn-mash fermentations; experiment: HPLC of corn-mash fermentations challenged with bacterial contamination and LAE treatments; assay type: cell-based; settings: CDY + treatment + Bacteria; average
Text: In support of validating LAE, High Performance Liquid Chromatography (HPLC) was used in a first phase of testing to evaluate the effects of LAE applications at various concentrations in order to determine the minimal inhibitory concentrations (MIC) of the LAE antimicrobial on a panel of industry-relevant bacteria. Refer to Tables 1 and 2 below, as well as FIGS. 2A-2D. FIG. 2A provides a visual depiction of test data relating to ethanol output from corn-mash fermentations treated with varying concentrations of LAE, with the results being the averages of triplicate samples (within one standard deviation). FIG. 2B provides a visual depiction of test data relating to ethanol output from corn-mash fermentations challenged with bacterial contamination and treated with 35 ppm LAE or 5 ppm Lactocide V (Virginamycin) (at the same time as the introduction of the bacteria), with the results being the averages of triplicate samples (within one standard deviation). FIG. 2C provides a visual depiction of test data relating to ethanol output from corn-mash fermentations challenged with bacterial contamination and treated with 50 ppm LAE or 5 ppm Lactocide V (Virginamycin) (at the same time as the introduction of the bacteria), with the results being the averages of triplicate samples (within one standard deviation). FIG. 2D provides a visual depiction of test data relating to colony-forming units (CFUs) of commercial yeast preparation with bacterial-contamination growth under batch-propagation conditions (molasses) with the addition of 0 ppm, 25 ppm, or 50 ppm LAE. One of the primary goals with the first phase of the LAE studies was to determine whether the addition of LAE would adversely affect ethanol production, and it was determined that LAE not only was not harmful to ethanol-production processes, but that unwanted microbe growth was inhibited using LAE enough to allow foregoing the use of antibiotics. Part of this analysis was to determine whether the introduction of LAE into the ethanol-production process would adversely impact the stillage byproducts used in animal feed, and for that matter whether the further use of LAE as a preservative in such byproducts would be safe for consumption by agricultural livestock. […] The testing serving as a basis for this conclusion assumed a maximum residual concentration of the LAE of 173 ppm in the distiller's grains. The safety of distiller's grains with LAE concentrations above 173 ppm was not fully evaluated.

Weisella confusa = settings: fermentation mixture; cited from earlier work
fermentation = fermentation mixture; cited from earlier work

For Virginiamycin [Lactocide], the “Acetic Acid” value [1] was 0.14 % wt/vol, the DP3 [1] was 0.15 % wt/vol and the DP4 [1] was 0.78 % wt/vol. For the same substance, the Ethanol [1] was 13.36 % wt/vol, the Glucose [1] was 0.12 % wt/vol and the Glycerol [1] was 1.59 % wt/vol. For the same substance, the “Lactic Acid” value [1] was 0.27 % wt/vol, the Maltose [1] was 0.48 % wt/vol and the “concentration required to inhibit growth” value (Weisella confusa) was “over 25 mg/L”. The “concentration that will suppress fermentation” value (fermentation) was “over 6 mg/L”.
